Patent US20250339399A1, “SUPRAMOLECULAR SELF-ASSEMBLY SYSTEM” (Beijing Creatron Institute of Pharmaceutical Research Co., …, priority 2022, published 2025)

Key:
[1] = Guest molecule concentration after incubation in initial medium without polymer (Comparative Example 1); type: physicochemical; conditions: 37° C.
Procedure: pH 2.0 hydrochloric acid, pH 4.5 acetate, and pH 6.5, pH 6.8, or pH 7.4 phosphate buffer solutions were prepared. The selection of each initial medium followed the principle that the solubility in the initial medium of the selected targets (or active ingredients) should low enough, but should meet the detection sensitivity and accuracy requirements of the corresponding analytical methods. Each buffer as initial media was placed in a 50 ml test tube with a stopper, shaken in a constant temperature air shaker at 37° C.±0.5° C., with an amplitude of 200 rpm, and incubated for 1 hour. […] Samples were taken at 0.5 h, 3 h and 6 h after incubation, centrifuged at 37° C., 13000 rpm for 5 minutes, and the supernatant was diluted at least 10 times with the mobile phase under the target analyte analytical method, filtered, the initial filtrate was discarded, and the continued filtrate was used as the test solution for injection analysis. The corresponding HPLC method under each target object item in Table 8 was used to determine the content of each target substance. When the solubility of the target in the initial medium is below the quantitative limit of the analytical method, a small amount of surfactant, such as sodium dodecyl sulfate (SDS), Tween20, or Tween80, can be added appropriately.
The above targets were incubated at 37° C.±0.5° C. for different time in an initial medium without any polymer. Each solid target formed by molecular stacking was removed by centrifugation, and the supernatant was analyzed using the HPLC method under each target item (see Table 8). The theoretical addition concentration of each target when its supramolecular self-assembly system was built was determined by its maximum dose in clinical use.

[2] = Binary supramolecular self-assembly systems of polymer and target: guest concentration over incubation time (Comparative Example 2); type: physicochemical
Procedure: Experiments were conducted according to the steps in Comparative Example 1, and quantitative analysis was carried out using the analytical method for each target to investigate the regulation ability […] stacking.

[3] = cited from earlier work
[4] = binary system with 0.5% polymer 101, incubation 0.5 h
[5] = binary system with 0.5% polymer 101, incubation 3 h
[6] = binary system with 0.5% polymer 101, incubation 6 h
[7] = binary system with 0.5% polymer 102, incubation 0.5 h
[8] = binary system with 0.5% polymer 102, incubation 3 h
[9] = binary system with 0.5% polymer 102, incubation 6 h
[10] = binary system with 0.5% polymer 103, incubation 0.5 h
[11] = binary system with 0.5% polymer 103, incubation 3 h
[12] = binary system with 0.5% polymer 103, incubation 6 h
[13] = binary system with 0.5% polymer 106, incubation 0.5 h
[14] = binary system with 0.5% polymer 106, incubation 3 h
[15] = binary system with 0.5% polymer 106, incubation 6 h
[16] = binary system with 0.5% polymer 107, incubation 0.5 h
[17] = binary system with 0.5% polymer 107, incubation 3 h
[18] = binary system with 0.5% polymer 107, incubation 6 h
[19] = binary system with 0.5% polymer 110, incubation 0.5 h
[20] = binary system with 0.5% polymer 110, incubation 3 h
[21] = binary system with 0.5% polymer 110, incubation 6 h

Row | Concentration of the target in the solution measured after different incubation time [2, 4] [ng/mL] | Concentration of the target in the solution measured after different incubation time [2, 5] [ng/mL] | Concentration of the target in the solution measured after different incubation time [2, 6] [ng/mL] | Concentration of the target in the solution measured after different incubation time [2, 7] [ng/mL] | Concentration of the target in the solution measured after different incubation time [2, 8] [ng/mL] | Concentration of the target in the solution measured after different incubation time [2, 9] [ng/mL] | Concentration of the target in the solution measured after different incubation time [2, 10] [ng/mL] | Concentration of the target in the solution measured after different incubation time [2, 11] [ng/mL] | Concentration of the target in the solution measured after different incubation time [2, 12] [ng/mL] | Concentration of the target in the solution measured after different incubation time [2, 13] [ng/mL] | Concentration of the target in the solution measured after different incubation time [2, 14] [ng/mL] | Concentration of the target in the solution measured after different incubation time [2, 15] [ng/mL] | Concentration of the target in the solution measured after different incubation time [2, 16] [ng/mL] | Concentration of the target in the solution measured after different incubation time [2, 17] [ng/mL] | Concentration of the target in the solution measured after different incubation time [2, 18] [ng/mL] | Concentration of the target in the solution measured after different incubation time [2, 19] [ng/mL] | Concentration of the target in the solution measured after different incubation time [2, 20] [ng/mL] | Concentration of the target in the solution measured after different incubation time [2, 21] [ng/mL] | SMILES | LogD7.4 or Log P [3] | other results
1 | 209100 | 193900 | 197800 | 566600 | 580900 | 608200 | 292100 | 321400 | 246400 | 184100 | 124300 | 159400 | 497800 | 171600 | 167100 | 427600 | 429700 | 460800 | CC#CC(=O)N1CCC[C@H]1c1nc(-c2ccc(C(=O)Nc3ccccn3)cc2)c2c(N)nccn12 [Acalabrutinib, acalabrutinib] | 2.56 | Concentration of guest molecule measured after different incubated time ([1]; 0.5 h, pH 7.4 phosphate buffer): 106000 ng/mL; Concentration of guest molecule measured after different incubated time ([1]; 3 h, pH 7.4 phosphate buffer): 87600 ng/mL; Concentration of guest molecule measured after different incubated time ([1]; 6 h, pH 7.4 phosphate buffer): 87600 ng/mL
2 | 45800 | 31000 | 9400 | 51500 | 47500 | 45900 | 1000 | 900 | 1300 | 1400 | 2100 | 1900 | 1500 | 800 | 2900 | 1900 | 1600 | 1300 | CCc1cc2c(cc1N1CCC(N3CCOCC3)CC1)C(C)(C)c1[nH]c3cc(C#N)ccc3c1C2=O [Alectinib, alectinib] | 4.75 | Concentration of guest molecule measured after different incubated time ([1]; 0.5 h, pH 6.8 phosphate buffer): 2500 ng/mL; Concentration of guest molecule measured after different incubated time ([1]; 3 h, pH 6.8 phosphate buffer): 10200 ng/mL; Concentration of guest molecule measured after different incubated time ([1]; 6 h, pH 6.8 phosphate buffer): 2200 ng/mL
3 | 135300 | 34500 | 18400 | 47000 | 43800 | 4900 | 91600 | 110500 | 120700 | 103100 | 16200 | 18800 | 189100 | 33700 | 28800 | 4700 | 18300 | 3300 | CCOc1nc2cccc(C(=O)OC(C)OC(=O)OC3CCCCC3)c2n1Cc1ccc(-c2ccccc2-c2nnn[nH]2)cc1 (centres unmarked) [Candesartan Cilexetil, candesartan cilexetil] | 5.31 | Concentration of guest molecule measured after different incubated time ([1]; 0.5 h, pH 4.5 acetate buffer): 3800 ng/mL; Concentration of guest molecule measured after different incubated time ([1]; 3 h, pH 4.5 acetate buffer): 2100 ng/mL; Concentration of guest molecule measured after different incubated time ([1]; 6 h, pH 4.5 acetate buffer): 2000 ng/mL
4 | 415100 | 421500 | 361700 | 29100 | 28500 | 26100 | 69100 | 69600 | 64500 | 37000 | 39300 | 39500 | 57000 | 37800 | 36500 | 64700 | 69300 | 64400 | COC(=O)[C@H](c1ccccc1Cl)N1CCc2sccc2C1 [Clopidogrel, clopidogrel] | 4.11 | –
5 | 13200 | 13500 | 9400 | 15300 | 12700 | 13400 | 7000 | 5200 | 4000 | 4100 | 3100 | 1800 | 3200 | 2400 | 1700 | – | – | – | O=C1[C@@H]2[C@H]3CC[C@H](C3)[C@@H]2C(=O)N1C[C@@H]1CCCC[C@H]1CN1CCN(c2nsc3ccccc23)CC1 [Lurasidone, lurasidone] | 3.43 | –
